Test results published in ChEMBL document CHEMBL3856231 (J Med Chem, 2016).
Calls of active or inactive are those of the source. The calls are words filed in the database; no cut-off is given here.

How the values were obtained:
[1] = Clearance in Sprague-Dawley rat at 1 mg/kg, iv by LC/MS/MS analysis; type: ADME, organism-based; conditions: in vivo
[2] = Half life in rat liver microsomes by LC/MS/MS analysis; type: ADME
[3] = Half life in human liver microsomes by LC/MS/MS analysis; type: ADME
Cytochrome P450 1A2 = target: T1, Cytochrome P450 1A2 (Homo sapiens, UniProt P05177); experiment: Inhibition of CYP1A2 in human liver microsomes using phenacetin as substrate in presence of NADPH by LC/MS/MS analysis; type: ADME
T1 sequence (P05177 whole entry): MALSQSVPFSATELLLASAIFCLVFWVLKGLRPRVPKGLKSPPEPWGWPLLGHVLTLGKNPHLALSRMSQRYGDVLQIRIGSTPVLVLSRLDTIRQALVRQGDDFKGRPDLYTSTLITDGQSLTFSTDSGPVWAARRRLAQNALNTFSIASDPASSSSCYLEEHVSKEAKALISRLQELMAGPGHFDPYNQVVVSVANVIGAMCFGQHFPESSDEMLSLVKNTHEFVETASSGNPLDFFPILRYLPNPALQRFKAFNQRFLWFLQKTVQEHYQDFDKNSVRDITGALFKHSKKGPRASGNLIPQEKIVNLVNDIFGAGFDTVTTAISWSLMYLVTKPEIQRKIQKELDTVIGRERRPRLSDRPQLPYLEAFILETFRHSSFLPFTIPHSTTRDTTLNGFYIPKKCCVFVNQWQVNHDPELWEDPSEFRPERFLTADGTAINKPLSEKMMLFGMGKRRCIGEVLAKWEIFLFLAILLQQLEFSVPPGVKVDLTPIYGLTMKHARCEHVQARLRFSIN

Cytochrome P450 2C19 = Cytochrome P450 2C19 (Homo sapiens, UniProt P33261); experiment: Inhibition of CYP2C19 in human liver microsomes using S-mephenytoin as substrate in presence of NADPH by LC/MS/MS analysis; type: ADME
[4] = Half life in cynomolgus monkey liver microsomes by LC/MS/MS analysis; type: ADME, Macaca fascicularis
[5] = Binding affinity to partial length human ALK 1151Tins mutant expressed in mammalian system by KINOMEscan assay
[6] = AUC (0 to infinity) in Sprague-Dawley rat at 1 mg/kg, iv by LC/MS/MS analysis; type: ADME, organism-based; parameters: dose 1 mg/kg, time infinity, route intravenous; conditions: in vivo
[7] = Volume of distribution in Sprague-Dawley rat at 1 mg/kg, iv by LC/MS/MS analysis; type: ADME, organism-based; conditions: in vivo
[8] = Volume of distribution in cynomolgus monkey at 1 mg/kg, iv by LC/MS/MS analysis; type: ADME, organism-based, Macaca fascicularis; conditions: in vivo
[9] = Cmax in Sprague-Dawley rat at 5 mg/kg, po by LC/MS/MS analysis; type: ADME, organism-based; parameters: dose 5 mg/kg, route oral; conditions: in vivo
[10] = Cmax in cynomolgus monkey at 10 mg/kg, po by LC/MS/MS analysis; type: ADME, organism-based, Macaca fascicularis; parameters: dose 10 mg/kg, route oral; conditions: in vivo
[11] = Tmax in Sprague-Dawley rat at 5 mg/kg, po by LC/MS/MS analysis; type: ADME, organism-based; conditions: in vivo
[12] = AUC (0 to infinity) in cynomolgus monkey at 10 mg/kg, po by LC/MS/MS analysis; type: ADME, organism-based, Macaca fascicularis; parameters: dose 10 mg/kg, route oral, time infinity; conditions: in vivo
[13] = Oral bioavailability in cynomolgus monkey at 10 mg/kg by LC/MS/MS analysis; type: ADME, organism-based, Macaca fascicularis; conditions: in vivo
[14] = Ratio of total drug level in Sprague-Dawley rat brain to plasma at 30 mg/kg, po; type: ADME, organism-based; conditions: brain and plasma, read-out: BPR
[15] = Cmax in Sprague-Dawley rat plasma at 30 mg/kg, po by LC/MS/MS analysis; type: ADME, organism-based; parameters: dose 30 mg/kg, route oral
[16] = AUC (0 to 48 hrs) in Sprague-Dawley rat plasma at 30 mg/kg, po by LC/MS/MS analysis; type: ADME, organism-based; parameters: time < 48 hr, dose 30 mg/kg, route oral
[17] = Dose normalized AUC in cynomolgus monkey at 10 mg/kg, po by LC/MS/MS analysis; type: ADME, organism-based, Macaca fascicularis; conditions: in vivo
SUP-M2 [18] = experiment: Induction of apoptosis assessed as caspase 3/7 activation in human SUP-M2 cells expressing NPM-ALK; type: functional, cell-based
KARPAS-299 = experiment: Induction of apoptosis assessed as caspase 3/7 activation in human KARPAS299 expressing NPM-ALK; type: functional
[19] = (§1) Cytotoxicity against human NCI-H2228 cells expressing EML4-ALK assessed as cell growth inhibition; type: functional, cell-based
NCI-H2228 [20] = experiment: as §1; type: functional, cell-based
Mus musculus [21] = experiment: Inhibition of NPM-ALK phosphorylation in human SUP-M2 cells xenografted in mouse at 30 mg/kg, po administered as single dose measured upto 12 hrs; type: functional, organism-based
Mus musculus [22] = experiment: Inhibition of NPM-ALK phosphorylation in human SUP-M2 cells xenografted in mouse at 30 mg/kg, po administered as single dose measured upto 24 hrs; type: functional
[23] = Drug level in plasma of NPM-ALK expressing human SUP-M2 cells xenografted mouse at 30 mg/kg, po administered as single dose measured at 2 hrs by LC-MS/MS analysis; type: ADME, organism-based
[24] = Drug level in tumor of NPM-ALK expressing human SUP-M2 cells xenografted mouse at 30 mg/kg, po administered as single dose measured at 2 hrs by LC-MS/MS analysis; type: ADME, organism-based, Neoplasm; conditions: read-out: Drug uptake
[25] = Drug level in tumor of NPM-ALK expressing human SUP-M2 cells xenografted mouse at 30 mg/kg, po administered as single dose measured at 6 hrs by LC-MS/MS analysis; type: ADME, organism-based, Neoplasm; conditions: read-out: Drug uptake
[26] = Drug level in tumor of NPM-ALK expressing human SUP-M2 cells xenografted mouse at 30 mg/kg, po administered as single dose measured at 24 hrs by LC-MS/MS analysis; type: ADME, organism-based, Neoplasm; conditions: read-out: Drug uptake
SUP-M2 [27] = experiment: Antitumor activity against human SUP-M2 cells expressing NPM-ALK xenografted in SCID-Beige mouse assessed as tumor ablation at 55 mg/kg, po qd administered for 12 days measured during compound dosing; type: functional, organism-based
NCI-H2228 [28] = experiment: Antitumor activity against human NCI-H2228 cells expressing EML4-ALK xenografted in SCID-Beige mouse assessed as reduction in tumor re-emergence at 30 and 55 mg/kg, po bid for 11 days followed by switching of drug schedule to 55 mg/kg, po qd on day 12 up to day 40 and measured on day 80; type: functional, organism-based
[29] = Drug level in tumor of FAK expressing human CWR22 cells xenografted Nu/Nu mouse at 55 mg/kg, po administered as single dose measured at 6 hrs by LC-MS/MS analysis; type: ADME, organism-based, Neoplasm; conditions: read-out: Drug uptake
Mus musculus [30] = experiment: Toxicity in SCID-Beige mouse xenografted with human HCC827 cells expressing activated FAK assessed as overt toxicity at 30 to 55 mg/kg, po bid administered for 28 days; type: organism-based; conditions: in vivo, 672 h
Mus musculus [31] = experiment: Toxicity in SCID-Beige mouse xenografted with human HCC827 cells expressing activated FAK assessed as body weight loss at 30 to 55 mg/kg, po bid administered for 28 days measured every 2 to 3 days; type: organism-based; conditions: in vivo
[32] = Antitumor activity against human CTG-0785 cells expressing activated FAK xenografted in mouse assessed as tumor growth inhibition at 55 mg/kg, po bid administered for 13 days measured during compound dosing; type: functional; conditions: CTG-0785, po, 312 h, read-out: TGI

Sequence of Cytochrome P450 2C19 (P33261 whole entry): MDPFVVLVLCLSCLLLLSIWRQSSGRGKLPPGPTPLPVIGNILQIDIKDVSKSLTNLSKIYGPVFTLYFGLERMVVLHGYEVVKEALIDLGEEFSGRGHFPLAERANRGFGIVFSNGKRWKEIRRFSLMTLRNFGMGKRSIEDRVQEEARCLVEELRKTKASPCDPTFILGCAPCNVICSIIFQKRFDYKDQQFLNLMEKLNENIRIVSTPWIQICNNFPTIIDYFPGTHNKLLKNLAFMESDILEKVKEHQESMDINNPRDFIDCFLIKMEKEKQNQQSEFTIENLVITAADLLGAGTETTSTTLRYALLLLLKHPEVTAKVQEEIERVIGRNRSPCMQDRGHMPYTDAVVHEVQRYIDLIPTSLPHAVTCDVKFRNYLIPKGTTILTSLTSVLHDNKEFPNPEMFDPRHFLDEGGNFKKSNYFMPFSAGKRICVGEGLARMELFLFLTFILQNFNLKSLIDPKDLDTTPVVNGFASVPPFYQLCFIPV

Question: What does the source list for CNC(=O)c1ccccc1Nc1nc(Nc2ccc3c(c2OC)CCC[C@H](N2CCN(CCO)CC2)C3)ncc1Cl [CEP-37440]?
Answer: clearance [1]: 3 to 4 mL/min/kg; half-life [2]: 40 min; half-life [3]: 40 min; IC50 (Cytochrome P450 1A2): > 5.6 µM; IC50 (Cytochrome P450 2C19): > 5.6 µM; half-life [4]: 21 min; Kd [5]: 0.0026 µM; AUC(0-inf) [6]: 4000 ng·h/mL; Vd [7]: 0.8 L/kg; Vd [8]: 13.2 L/kg; Cmax [9]: 1340 ng/mL; Cmax [10]: 239 ng/mL; Tmax [11]: 198 min; AUC(0-inf) [12]: 2760 ng·h/mL; bioavailability [13]: 50%; Kp [14]: 1.5 to 2; Cmax [15]: 2120 ng/g; AUC(0-t) at 48 h [16]: 31500 ng·h/mL; AUC/dose [17]: 276 ng·h/mL; Activity (SUP-M2 [18]): Active; Activity (KARPAS-299): Active; IC50 [19]: 2.9 µM; growth inhibition (GI) (NCI-H2228 [20]): Dose-dependent effect; inhibition (Mus musculus [21]): Active; inhibition in vivo at 30 mg/kg (Mus musculus [22]): > 85%; concentration at 2 h [23]: 4740 ng/mL; concentration at 2 h [24]: 6040 ng/g; concentration at 6 h [25]: 6930 ng/g; concentration at 24 h [26]: 8200 ng/g; Activity (SUP-M2 [27]): Active; Activity (NCI-H2228 [28]): Active; concentration at 6 h [29]: 8680 ng/g; Activity (Mus musculus [30]): Non-Toxic; Activity (Mus musculus [31]): Non-Toxic; inhibition in vivo at 55 mg/kg [32]: 70%
